Reference: patent publication US20060018864A1, “Cosmetic preparation containing glycerylamino acid derivative” (priority 2002, published 2006)
Read-outs that look alike come from different tables or passages of the source.

Columns and labels:
[1] = Stability evaluation: odor of sample solution after storage at 50° C. for 1 month; conditions: for Stability: 5% by weight sample solution, sealed, 50° C., 1 month, odor, average of 5 panelists (3: no degradation odor, 1: strong degradation odor); for Formation of homogeneous solution of sample: 5% by weight sample solution for stability evaluation
Excerpt: [Method of Stability Evaluation]
After 1 month being elapsed, the sealing was opened, followed by odor of samples being evaluated by 5 panelists according to the following criteria.
Odor rating criteria • 3: No degradation odor • 2: Almost no degradation odor • 1: Strong degradation odor
Odor evaluation value of each sample was the average of values determined by 5 panelists; the evaluation result was represented by the following marks rated according to respective criteria. • ∘: 2.4 or more and less than 3 • □: 1.8 or more and less than 2.4 • X: Less than 1.8

[2] = Moisture-absorption ability measurement employing keratin powder (ground wool); type: physicochemical; conditions: keratin powder with sample, 20° C., 79.2% relative humidity, 48 hours; absorbed water per 1 g of keratin powder
Experimental: [Method of Moisture-Absorption Ability Measurement Carried Out by Employing Keratin Powder (Ground Wool)]
Moisture-absorption ability was evaluated by the following criteria.
Moisture-absorption ability rating criteria • ⊚: Amount of absorbed water per 1 g of keratin powder is 0.60 g or more. • ◯: Amount of absorbed water per 1 g of keratin powder is 0.50 g or more and less than 0.60 g • Δ: Amount of absorbed water per 1 g of keratin powder is 0.40 g or more and less than 0.50 g • X: Amount of absorbed water per 1 g of keratin powder is less than 0.40 g [Method of Moisturizing Effect Measurement Carried Out by Employing Keratin Powder (Ground Wool)]

[3] = Moisturizing effect measurement employing keratin powder (ground wool); type: physicochemical; conditions: (B/A)×100: water retained after further 6 hours at 20° C., 20.0% relative humidity, relative to water absorbed at 79.2% relative humidity for 48 hours
Experimental: For the constant-humidity bath under 20.0% of relative humidity, saturated aqueous potassium acetate solution was employed.
Moisturizing effect was evaluated by the following criteria,
Moisturizing effect rating criteria • ⊚: 60 or more • ◯: 50 or more and less than 60 • Δ: 40 or more and less than 50 • X: Less than 40

[4] = tested on: skin (forearm of panelists); assay: Moisturizing effect on skin: skin conductance (SKICON200-EX) on forearm of panelists; type: in vivo, human; conditions: for change in vivo at 5 %: Homo sapiens, topical, 20 min, read-out: Moisturizing effect on skin
Experimental: Evaluation was carried out in a manner that forearm of panelists was washed and then applied with 100 μl of aqueous amino acid N-glyceryl derivative solution prepared in 5% concentration. Then, conductance value of the skin was measured by SKICON200-EX (manufactured by IBS K. K.) before the application and in 20 minutes elapsed after the application.
Moisturizing effect on skin was evaluated by the following criteria.
Moisturizing effect on skin rating criteria • ◯: Conductance changing ratio is 10% more • □: Conductance changing ratio is 3% or more and less than 10% • X: Conductance changing ratio is less than 3.

[5] = 100 μl of 5% aqueous solution on washed forearm, ten panelists, conductance changing ratio before vs 20 minutes after application

Compound | Stability [1] | Moisture-absorption ability [2] | Moisturizing effect [3] | change in vivo at 5 % [4, 5] [%] | Moisturizing effect on skin [4, 5] | Formation of homogeneous solution of sample [1] | change in vivo at 5 % [4] [%]
C[C@H](N)C(=O)O [Alanine] | X (Less than 1.8) |  |  |  |  |  | 
C[C@H](NCC(O)CO)C(=O)O (stereo partly drawn) [Glyceryl derivative of alanine, N-glycerylalanine] | Δ | ⊚ (Amount of absorbed water per 1 g of keratin powder is 0.60 g or more) | ◯ (50 or more and less than 60) | > 10 |  |  | 
N[C@@H](CO)C(=O)O [Serine] |  | Δ (Amount of absorbed water per 1 g of keratin powder is 0.40 g or more and less than 0.50 g) | Δ (40 or more and less than 50) | < 3 |  |  | 
O=C(O)[C@H](Cc1ccccc1)NCC(O)CO (stereo partly drawn) [Glyceryl derivative of phenylalanine, N-glycerylphenylalanine] | ◯ | ⊚ (Amount of absorbed water per 1 g of keratin powder is 0.60 g or more) | ◯ (50 or more and less than 60) | > 10 |  |  | 
Cl.NCCCC[C@H](NCC(O)CO)C(=O)O (stereo partly drawn) [Glyceryl derivative of lysine, N-glyceryllysine hydrochloride] | Δ | ⊚ (Amount of absorbed water per 1 g of keratin powder is 0.60 g or more) | ⊚ (60 or more) |  | ⊚ |  | 
OCC(O)CO [Glycerin] | ◯ | ◯ (Amount of absorbed water per 1 g of keratin powder is 0.50 g or more and less than 0.60 g) | ◯ (50 or more and less than 60) |  |  |  | 
NCC(=O)O [Glycine] |  | Δ (Amount of absorbed water per 1 g of keratin powder is 0.40 g or more and less than 0.50 g) | Δ (40 or more and less than 50) |  | Δ |  | 
O=C(O)[C@@H]1CCCN1 [Proline] |  | ◯ (Amount of absorbed water per 1 g of keratin powder is 0.50 g or more and less than 0.60 g) | ◯ (50 or more and less than 60) |  | Δ |  | 
O=C(O)[C@@H]1CCCN1CC(O)CO (stereo partly drawn) [Glyceryl derivative of proline, N-glycerylproline] | Δ | ⊚ (Amount of absorbed water per 1 g of keratin powder is 0.60 g or more) | ⊚ (60 or more) | > 10 |  |  | 
CC(C)C[C@H](N)C(=O)O [Leucine] | Δ |  |  | < 3 |  | did not form homogeneous solution | 
O=C(O)[C@H](CO)NCC(O)CO (stereo partly drawn) [Glyceryl derivative of serine, N-glycerylserine] | ◯ | ⊚ (Amount of absorbed water per 1 g of keratin powder is 0.60 g or more) | ⊚ (60 or more) | > 10 |  |  | 
Cl.N=C(N)NCCC[C@H](NCC(O)CO)C(=O)O (stereo partly drawn) [Glyceryl derivative of arginine, N-glycerylarginine hydrochloride] | ⊚ | ⊚ (Amount of absorbed water per 1 g of keratin powder is 0.60 g or more) | ⊚ (60 or more) |  | ⊚ |  | 
N[C@@H](CCC(=O)[O-])C(=O)[O-].O.[Na+].[Na+] [Sodium glutamate hydrate] | Δ | Δ (Amount of absorbed water per 1 g of keratin powder is 0.40 g or more and less than 0.50 g) | Δ (40 or more and less than 50) |  |  |  | > 10
Cl.N[C@@H](Cc1cnc[nH]1)C(=O)O [Histidine hdrochloride] |  | Δ (Amount of absorbed water per 1 g of keratin powder is 0.40 g or more and less than 0.50 g) | Δ (40 or more and less than 50) |  | Δ |  | 
N[C@@H](CC(=O)[O-])C(=O)[O-].O.[Na+].[Na+] [Sodium aspartate hydrate] | Δ | Δ (Amount of absorbed water per 1 g of keratin powder is 0.40 g or more and less than 0.50 g) | Δ (40 or more and less than 50) |  | Δ |  | 
CC(C)C[C@H](NCC(O)CO)C(=O)O (stereo partly drawn) [Glyceryl derivative of leucine, N-glycervylleucine] |  | ⊚ (Amount of absorbed water per 1 g of keratin powder is 0.60 g or more) | ◯ (50 or more and less than 60) |  | ◯ (Conductance changing ratio is 10% more) |  | 
CN(CC(=O)O)CC(O)CO (stereo not drawn) [Glyceryl derivative of sarcosine, N-glyaerylsarcosine] |  | ⊚ (Amount of absorbed water per 1 g of keratin powder is 0.60 g or more) | ⊚ (60 or more) |  | ◯ (Conductance changing ratio is 10% more) |  | 
N[C@@H](Cc1ccccc1)C(=O)O [Phenylalanine] | Δ | X (Amount of absorbed water per 1 g of keratin powder is less than 0.40 g) | X (Less than 40) | < 3 |  | did not form homogeneous solution | 
O=C(O)CNCC(O)CO (stereo not drawn) [Glyceryl derivative of glycine, N-glycerylglycine] | Δ | ⊚ (Amount of absorbed water per 1 g of keratin powder is 0.60 g or more) | ⊚ (60 or more) | > 10 |  |  | 
Cl.O=C(O)[C@H](Cc1c[nH]cn1)NCC(O)CO (stereo partly drawn) [Glyceryl derivative of histidine, M-glycerylhistidine hydrochloride] |  | ⊚ (Amount of absorbed water per 1 g of keratin powder is 0.60 g or more) | ⊚ (60 or more) |  | ⊚ |  | 
1 sodium N-glycerylaspartate [Glyceryl derivative of aspartic acid] |  |  |  |  | ⊚ |  | 
Cl.N=C(N)NCCC[C@H](N)C(=O)O [Arginine hydrochloride] | ◯ | ◯ (Amount of absorbed water per 1 g of keratin powder is 0.50 g or more and less than 0.60 g) | ◯ (50 or more and less than 60) |  |  |  | > 10
O=C([O-])CC[C@H](NCC(O)CO)C(=O)[O-].[Na+].[Na+] (stereo partly drawn) [Glyceryl derivative of glutamic acid, sodium N-glycerylglutamate] | ◯ | ⊚ (Amount of absorbed water per 1 g of keratin powder is 0.60 g or more) | ⊚ (60 or more) |  | ⊚ |  | 
Cl.NCCCC[C@H](N)C(=O)O [Lysine hydrochloride] | Δ | Δ (Amount of absorbed water per 1 g of keratin powder is 0.40 g or more and less than 0.50 g) | Δ (40 or more and less than 50) |  | Δ |  | 
CC(O)CCO (stereo not drawn) [1,3-Butylene glycol] | Δ | Δ (Amount of absorbed water per 1 g of keratin powder is 0.40 g or more and less than 0.50 g) | Δ (40 or more and less than 50) |  | Δ |  | 
CNCC(=O)O [Sarcosine] | Δ | Δ (Amount of absorbed water per 1 g of keratin powder is 0.40 g or more and less than 0.50 g) | Δ (40 or more and less than 50) | < 3 |  |  | 
